The results in this text go back to patent US20080187492A1, “Drosophila Models For Diseases Affecting Learning and Memory” (priority 2004, published 2008).

Assay [1] concerns Drosophila expressing mutant huntington protein in the MBs. As to the kind of experiment: Naive courtship and short-term memory in Drosophila expressing mutant huntington in the MBs. The following applies: 5 day old flies; p<0.05. The assay is classed as in vivo. The source says:
Both HDAC inhibition and CBP overexpression should in theory promote an increase CREB mediated gene transcription. […] Since we knew that we could use a PDE-4 inhibitor or mGluR antagonists or lithium to increase cAMP levels thereby promoting CREB mediated transcription, we decided to see if these compounds could restore the memory deficit in Drosophila expressing mutant huntington in the MBs.

In assay [2] the test system is Rescue (dFMR1-3+wild type rescue fragment) flies. As to the kind of experiment: Conditioned courtship: learning during training, Rescue flies. The assay is classed as in vivo, Drosophila melanogaster. The following applies: MPEP 200 μg/ml in development, adulthood or both. The source says: (§1) The role of dFMR1 in learning during training and immediate recall. The flies used were w1118 (the background stock from which the mutation was derived), dFMR1-3 (the mutation lacking dFMR1 expression), Rescue (dFMR1-3+wild type rescue fragment) and FS (frame shift, dFMR1-3+frame shifted rescue fragment) all from Dockendorff et al, 2002. To assess learning during training male flies are placed in a training chamber with a previously mated female for one hour. The amount of time the male spent courting in the initial ten-minute interval was compared to the amount of time the male spent courting the female target in the final ten-minute interval (FIG. 1). […] It is important to note that the level of courtship behavior towards the previously mated female is similar between the two mutant groups and the w1118 and Rescue groups. […] This is important to note, because without actively courting, the male fly cannot be trained (Tompkins et al. 1982; 1983).
(§2) Learning during training. In order to assess learning during training, the male flies were placed in a training chamber with a previously mated female for one hour. The amount of time the male spent courting in the first ten-minute interval was compared to the amount of time the male spent courting the female target in the last ten-minute interval (FIG. 4A).
(§3) Behavioral Training and Testing. […]

The test system is the same in assay [3]. The assay is described as follows: Quality of naive courtship (progress to later courtship steps), Rescue flies. The assay is classed as in vivo, Drosophila melanogaster. The following applies: 5 day old. How it is done: In order to determine if MPEP can get into the Drosophila central nervous system (CNS) through feeding behavior, we mixed MPEP into the food at a concentration of 1,000 μg/ml (433.0 μM). Males were raised on CT food and then placed on either CT or M food. Naive males were placed in the training chamber for one hour with no female, and then placed with a virgin target female for a ten-minute interval. The naive courtship behavior was reduced by high MPEP concentration in Rescue (p<0.0001) and FS (p<0.0005) lines, and it was depressed to similar levels by high MPEP treatment in the Rescue and FS groups (FIG. 2A). […] FIG. 2B dissects the steps involved in naive courtship behavior. […] Lowering the dose of MPEP and examining naive courtship. We next decided to try a lower dose of MPEP to 200 μg/ml (86.6 μM) mixed into the food of the Drosophila. In these experiments flies were placed on either CT or M food in the larval stage and then placed on either CT of M food within four hours of eclosion. […] Therefore giving this drug in adulthood only is effective in enhancing naive courtship behavior. […] Further analysis of the quality of courtship that was performed by naive males was assessed by binning the number of males to advance to a particular phase of courtship for each genotype and pharmacologic treatment (FIG. 3B).

Assay [4] concerns FS (dFMR1-3+frame shifted rescue fragment) flies. As to the kind of experiment: Conditioned courtship: learning during training, FS flies. The class given is in vivo, Drosophila melanogaster. Conditions: MPEP 200 μg/ml in development, adulthood or both.
Description: as §1, §2, §3

The subject of assay [5] is Rescue (dFMR1-3+wild type rescue fragment) flies. As to the kind of experiment: Naive courtship behavior (courtship index toward virgin female), Rescue flies. The assay is classed as in vivo, Drosophila melanogaster. The following applies: 20-day-old.
Assay [6] shares this test system. As to the kind of experiment: Discrimination between virgin and previously mated females, Rescue flies. The assay is classed as in vivo, Drosophila melanogaster. On the procedure: Short-term memory. The model was further extended to encompass short-term memory at 60 minutes after training. After the one hour training session with a previously mated female, the female is removed and the male is placed in a holding chamber for 60 minutes, then subsequently placed in a testing chamber with a virgin female target to assess short-term memory (FIG. 4C). […] CT-CT FS flies court just as vigorously at 60 minutes after training as naive CT-CT FS flies. […] The FS groups that were treated with MPEP in development alone, adulthood alone or in both development and adulthood display experience dependent reduction of courtship activity at 60 minutes after training when compared to group matched naives M-M FS, p<0.0001, CT-M FS, p<0.0001 and M-CT FS, p<0.0001. […] Additionally, flies were tested for ability to discriminate between virgin and previously mated females (FIG. 4D).
Flies were also tested for ability to discriminate between virgin and previously mated females in FIG. 9C.

The structures appear in SMILES notation.

On to `N[C@](CC1c2ccccc2Oc2ccccc21)(C(=O)O)[C@H]1C[C@@H]1C(=O)O` [LY341495, (2S)-2-amino-2-[(1S,2S)-2-carboxycycloprop-1-yl]-3-(xanth-9-yl) propionic acid], for which the short-term memory result in assay [1] is “restored short-term memory”.
For `Cc1cccc(C#Cc2ccccc2)n1` [MPEP, 2-methyl-6-(phenylethynyl)pyridine], in assay [2] (20-day-old), the “learning during training (initial vs final courtship levels)” value is listed as “significant depression from the initial to final intervals”. Besides, the values for the learning during training entry in assay [2] (5 day old), in assay [4] (20-day-old) and in assay [4] (5 day old) were “does not adversely affect learning during training”, “able to restore learning during training” and “does not adversely affect learning during training”, respectively. Besides, the “quality of naive courtship” value in assay [3] (MPEP 200 μg/ml in adulthood only (CT-M)) is “progressed to later phases of courtship to similar levels as all other groups”. Further, the “steps involved in naive courtship behavior” value in assay [3] (MPEP 1,000 μg/ml in adulthood, relative to CT-CT Rescue) was “failed to progress to later steps in courtship behavior”. For the same compound, the naive courtship activity entry in assay [5] (MPEP (86.6 μM) in adulthood only (CT-M)) is recorded as “depressed relative to CT-CT Rescue flies”; in assay [5] (MPEP (86.6 μM) in development then M or CT food as adults), “courted as vigorously as CT-CT Rescues flies”. In addition, in assay [6] (20-day-old, MPEP 200 μg/ml in development and adulthood (M-M)), the “time courting virgin female compared to previously mated female (discrimination)” value is “spent significantly more time courting virgin female targets”. The “ability to discriminate between virgin and previously mated females” value in assay [6] (5 day old, MPEP 200 μg/ml in adulthood only (CT-M)) was “spend similar amounts of time courting previously mated female targets and virgin female targets”.
